Results published in patent US20130053430A1, “MODULATION OF CETP EXPRESSION” (Isis Pharmaceuticals, Inc., priority 2010, published 2013).
e = 2'-O-(2-methoxyethyl) (MOE); d = 2'-deoxy (DNA)

Columns and labels:
[1] = system: CETP protein; experiment: Plasma CETP protein by ELISA in huCETP transgenic mice (Example 5); assay type: in vivo, human; settings: normal chow, 50 mg/kg i.p. twice per week for 6 weeks, compared to PBS control
Procedure: (§1) The mice were divided into five treatment groups. The first four groups received intraperitoneal injections of ISIS 349511, ISIS 349512, ISIS 349515, or ISIS 349517 at a dose of 50 mg/kg twice per week for 6 weeks. The fifth group received intraperitoneal injections of saline twice weekly for 6 weeks.
Plasma levels of CETP protein were measured by ELISA (Alpco, N.H.). […] The results are expressed as percentage inhibition compared to the PBS control.

[2] = Plasma cholesterol and triglyceride levels in huCETP transgenic mice (Example 5); assay type: in vivo; settings: 50 mg/kg i.p. twice per week; for HDL / LDL / Total cholesterol / Triglycerides / VLDL: plasma
Procedure: as §1
Plasma cholesterol were extracted at weeks 3 and 6 by the method of Bligh and Dyer (Bligh, E. G. and Dyer, W. J. Can. J. Biochem. Physiol. 37: 911-917, 1959) and measured with an Olympus clinical analyzer (Hitachi Olympus AU400e, Melville, N.Y.). HDL, LDL and VLDL cholesterol were individually measured by HPLC. Triglyceride levels were measured with the use of a commercially available triglyceride kit (DCL Triglyceride Reagent; Diagnostic Chemicals Ltd.). The results are presented in Tables 13 and 14 and are expressed in mg/dL. There was a significant increase in HDL levels in mice treated with ISIS oligonucleotides.

[3] = system: CETP mRNA; experiment: Dose response, liver CETP mRNA in huCETP transgenic mice on Western diet (Example 9); assay type: in vivo, human; settings: s.c. 6 weeks
Procedure: Male transgenic mice were maintained on a 12-hour light/dark cycle and were fed ad libitum the Western diet (TD88137; 42% cal from fat, 0.2% cholesterol; Harlan Laboratories, Indianapolis, Ind.). Animals were acclimated for at least 7 days in the research facility before initiation of the experiment and were maintained on this diet throughout the study period. Antisense oligonucleotides (ASOs) were prepared in buffered saline (PBS) and sterilized by filtering through a 0.2 micron filter. Oligonucleotides were dissolved in 0.9% PBS for injection.
(§2) Another group received subcutaneous injections of control oligonucleotide ISIS 141923 at a dose of 50 mg/kg/week for 6 weeks. One group of mice received subcutaneous injections of PBS for 6 weeks. The PBS-injected group served as the control group to which treatment groups were compared.
Twenty four hours after the final dose, the animals were sacrificed and liver tissue was isolated. Liver RNA was isolated for real-time PCR analysis of CETP. The primer probe sets hCETP and hCETP2_LTS00182 were individually used to measure CETP levels. As presented in Table 43, treatment with ISIS 349517 reduced CETP mRNA expression in a dose-dependent manner. Both primer probe sets produced similar results. The RNA expression levels were normalized to murine Cyclophilin. The results are expressed as percent inhibition of CETP mRNA, relative to the PBS control.

[4] = system: ApoA1; experiment: Liver ApoA1 mRNA expression (Example 9); assay type: in vivo, mice; settings: s.c. 6 weeks; for Percent inhibition of liver mRNA expression, ApoA1: percentage increase or decrease compared to PBS control
Procedure: as §2
Liver RNA was isolated for real-time PCR analysis of ABCA1, ApoAI, and SR-B1. ATP-binding cassette transporter ABCA1 (member 1 of human transporter sub-family ABCA), also known as the cholesterol efflux regulatory protein (CERP) is a protein which in humans is encoded by the ABCA1 gene (Luciani, M. F. et al., Genomics. 1994. 21: 150-9). This transporter is a major regulator of cellular cholesterol and phospholipid homeostasis. Apolipoprotein A-I is a protein that in humans is encoded by the APOA1 gene (Breslow, J. L. et al., Proc. Natl. Acad. Sci. USA 1982. 79: 6861-5). Apolipoprotein A-I is the major protein component of HDL in plasma. The protein promotes cholesterol efflux from tissues to the liver for excretion. Scavenger receptor class B, type I (SR-BI) is an integral membrane protein found in numerous cell types/tissues, including the liver and adrenal (Acton, S. L. et al., J. Biol. Chem. 1994. 269: 21003-21009). It is best known for its role in facilitating the uptake of cholesteryl esters from high-density lipoproteins in the liver. Therefore, all three genes have a role in HDL regulation.
The primer probe set RTS1204 (forward sequence […], designated herein as SEQ ID NO: 122, reverse sequence […], designated herein as SEQ ID NO: 123, probe sequence AGGCCCAGACCTGTAAAGGCGAAGX, with X a fluorophore, designated herein as SEQ ID NO: 124) was used to measure abca1 levels. The primer probe set RTS14737 (forward sequence […], designated herein as SEQ ID NO: 125, reverse sequence […], designated herein as SEQ ID NO: 126, probe sequence CTGCAGGAACGGCTGGGCCCX, with X a fluorophore, designated herein as SEQ ID NO: 127) was used to measure apoA1 levels. The primer probe set mSRB-1 (forward sequence […], designated herein as SEQ ID NO: 128, reverse sequence ATGCGACTTGTCAGGCTGG, designated herein as SEQ ID NO: 129, probe sequence CGTGGAGAACCGCAGCCTCCATTX, with X a fluorophore, designated herein as SEQ ID NO: 130) was used to measure sr-b1 levels. The results are presented in Table 44 as percentage increase or decrease in the respective expression levels compared to the PBS control. Both primer probe sets produced similar results. The RNA expression levels were normalized to murine Cyclophilin. Treatment with ISIS 349517 caused an increase in ApoA1 and SR-B1 levels.

[5] = Plasma glucose, dose response (Example 9); assay type: in vivo, mice
Procedure: as §2
Plasma glucose values were determined using a Beckman Glucose Analyzer II (Beckman Coulter) by a glucose oxidase method (Lott, J. A. et al., Clin. Chem. 21: 1754-1760, 1975).

Substance	Percent inhibition of plasma CETP protein levels [1] [%]	Percentage of HDL in total cholesterol ([2]; Week 3) [%]	Percentage of HDL in total cholesterol ([2]; week 6) [%]	HDL ([2]; week 3) [mg/dL]	LDL ([2]; week 3) [mg/dL]	Total cholesterol ([2]; week 3) [mg/dL]	Triglycerides ([2]; week 3) [mg/dL]	HDL ([2]; week 6) [mg/dL]	LDL ([2]; week 6) [mg/dL]	Total cholesterol ([2]; week 6) [mg/dL]	Triglycerides ([2]; week 6) [mg/dL]	VLDL ([2]; week 6) [mg/dL]	Percent inhibition of liver CETP mRNA expression, PPset hCETP ([3]; Dose 50 mg/kg/wk) [%]	Percent inhibition of liver CETP mRNA expression, PPset hCETP2_LTS00182 ([3]; Dose 50 mg/kg/wk) [%]	Percent inhibition of liver mRNA expression, ApoA1 ([4]; Dose 50 mg/kg/wk)	Glucose levels ([5]; 50 mg/kg/wk, Week 0) [mg/dL]	Glucose levels ([5]; 50 mg/kg/wk, Week 3) [mg/dL]	Glucose levels ([5]; 50 mg/kg/wk, Week 6) [mg/dL]	further results
ISIS 349517: 5-10-5 MOE gapmer CAGCACTTTAATGCCAGTGG (sugars from the 5' end e5 d10 e5, backbone and methylation of C not given here)	86	75	74	59	14	79	68	55	15	75	103	4	92	96	+136%	339	269	255	Percent inhibition of liver CETP mRNA expression, PPset hCETP ([3]; Dose 1.5 mg/kg/wk): 59%; Percent inhibition of liver CETP mRNA expression, PPset hCETP2_LTS00182 ([3]; Dose 1.5 mg/kg/wk): 59%; Percent inhibition of liver CETP mRNA expression, PPset hCETP ([3]; Dose 5 mg/kg/wk): 87%; Percent inhibition of liver CETP mRNA expression, PPset hCETP2_LTS00182 ([3]; Dose 5 mg/kg/wk): 87%; Percent inhibition of liver CETP mRNA expression, PPset hCETP ([3]; Dose 15 mg/kg/wk): 91%; Percent inhibition of liver CETP mRNA expression, PPset hCETP2_LTS00182 ([3]; Dose 15 mg/kg/wk): 95%; ApoA1 levels (liver mRNA) ([4]; huCETP transgenic mice, Western diet): increase; Percent inhibition of liver mRNA expression, ApoA1 ([4]; Dose 1.5 mg/kg/wk): −34%; Percent inhibition of liver mRNA expression, ApoA1 ([4]; Dose 5 mg/kg/wk): −13%; Percent inhibition of liver mRNA expression, ApoA1 ([4]; Dose 15 mg/kg/wk): +52%; Glucose levels ([5]; 1.5 mg/kg/wk, Week 0): 375 mg/dL; Glucose levels ([5]; 1.5 mg/kg/wk, Week 3): 288 mg/dL; Glucose levels ([5]; 1.5 mg/kg/wk, Week 6): 348 mg/dL; Glucose levels ([5]; 5 mg/kg/wk, Week 0): 354 mg/dL; Glucose levels ([5]; 5 mg/kg/wk, Week 3): 287 mg/dL; Glucose levels ([5]; 5 mg/kg/wk, Week 6): 346 mg/dL; Glucose levels ([5]; 15 mg/kg/wk, Week 0): 339 mg/dL; Glucose levels ([5]; 15 mg/kg/wk, Week 3): 271 mg/dL; Glucose levels ([5]; 15 mg/kg/wk, Week 6): 329 mg/dL
ISIS 349511: 5-10-5 MOE gapmer CCCGACCTCCTTGGAGACTT (sugars from the 5' end e5 d10 e5, backbone and methylation of C not given here)	75	73	76	60	15	83	87	66	17	88	84	4	–	–	–	–	–	–	–
ISIS 141923: CCTTCCCTGAAGGTTCCTCC, 5-10-5 MOE gapmer, a control oligonucleotide which has no known murine target (sugars from the 5' end e5 d10 e5, backbone and methylation of C not given here) [reference compound]	–	–	–	–	–	–	–	–	–	–	–	–	0	0	−50%	311	256	305	–
